In patent publication US9795643B2, “Oncolytic measles virus” (priority 2010, dated 2017):

Test system: subcutaneously grown Hep3B tumors
Assay: Murine xenograft model of human HCC (Hep3B)
Type: in vivo, nude mice
Experimental: To test the armed vectors pc3MerV2 Id-SCD, pMerV2 P-SCD, and pc3MerV2 Id-VP22SCD in vivo, a murine xenograft model of human HCC was applied.
To compare the armed vectors, a mouse model of subcutaneously grown Hep3B tumors was chosen. This decision was based on the facts (i) that Hep3B can be efficiently infected by MeV and support MeV replication at high levels, (ii) that in Hep3B, the conversion of 5-FC into 5-FU is fast and efficient and (iii) that over an incubation of 1-4 days after addition of the prodrug to infected cells, an increasing gap between the treatment with virus alone and the combination treatment can be observed. Additionally, a mouse model of Hep3B has been described before (Blechacz B, Splinter P L, Greiner S, Myers R, Peng K W, Federspiel M J, Russell S J, LaRusso N F. Hepatology. 2006 December; 44(6):1465-77) with a high engraftment ratio (80%, personal communication with Boris Blechacz, Mayo Clinic, Rochester, Minn., USA). In contrast, this ratio is much lower in PLC/PRF/5 (60%) and in HepG2, both determined in our laboratory.
For this in vivo experiment, six week old nude mice received subcutaneous injections of 100 μl cell suspension containing 10^6 Hep3B cells in PBS. […] The tumors were very well vascularized and appeared blue through the nude skin of the mice. After the tumors had grown to a diameter of approximately 5 mm, the mice received five intratumoral injections of the respective virus (MeV Id-SCD, MeV Id-VP22SCD or MeV P-SCD) with 2*10^6 pfu per injection and one injection daily (total dose: 10^7 pfu). Control groups were treated with medium only. On the following seven days, the mice received 500 mg/kg bodyweight 5-FC in PBS intraperitoneally. Tumor volume and weight of the animals were determined three times a week.
The combinatorial treatment (MeV-SCD+5-FC) did neither lead to any visible changes in the behavior of the animals, nor did they show reactions like enhanced sensitivity to touch. The skin of the mice looked healthy, no changes in their movement or feeding behaviors were observed and their weight remained stable.

Nc1nc(=O)[nH]cc1F [5-FC, 5-fluorocytosine]
effect of administration of the prodrug alone (5-FC 500 mg/kg i.p., 7 days, no virus): no effect | day before which all mice had to be sacrificed (5-FC only group): < 50 days | median survival (virus 5 intratumoral injections 2*10^6 pfu, 5-FC 500 mg/kg i.p. for 7 days): 32 days
